Columns and labels:
Abcg2c [1] = system: T1, Abcg2c; test: cells; set-up: species or system HEK-293; CellTiter-Glo growth inhibition of transporter-transfected HEK-293 cells, luminescence; conditions: Homo sapiens, HEK293, 72 h; cells expressing zebrafish Abcg2c
T1 construct: HEK-293 HEK-293 stably expressing full-length FLAG-tagged zebrafish Abcg2c
Description: (§1) Trypsinized cells were plated at 5,000 cells/well in white opaque 96-well plates and allowed to adhere overnight. Drugs were then added, with each concentration tested in triplicate, and cells were incubated for 72 h. Cell growth was assessed using the CellTiter-Glo (Promega, Madison, WI) reagent, according to the manufacturer’s instructions. Luminescence was measured on a Tecan Infinite M200 Pro microplate reader (Tecan Group, Morrisville, NC, RRID:SCR_019033). […] Relative resistance (RR) values are the ratio of the GI50 values of the transporter transfected versus the empty vector-transfected HEK-293 cells. HEK-293 cells (ATCC, Manassas, VA, RRID:CVCL_0045) were transfected with empty pcDNA3.1 vector or with vector containing full-length abcg2a (NM_001042775), abcg2b (NM_001039066), abcg2c (XM_005156523) or abcg2d (NM_001042772) (all from Genscript, Piscataway, NJ), flanked by a C-terminal FLAG tag sequence. The R-5 cell line was generated as previously described from HEK-293 cells transfected with full-length ABCG2 [18]. Transfected cells were cultured at 37 °C and at 5% CO2 in EMEM (Quality Biological, Gaithersburg, MD) supplemented with 10% fetal calf serum, penicillin/streptomycin (Quality Biological) and 2 mg/ml G418 (Mediatech, Manassas, VA). To determine if zebrafish Abcg2a-d were able to confer resistance to known cytotoxic substrates of ABCG2, cytotoxicity assays were performed and quantified by the drug concentration that produces 50% cell growth inhibition (GI50). Among the zebrafish Abcg2 homologs, Abcg2a conferred the highest level of resistance to MLN7243 (a ubiquitin activating enzyme inhibitor), MLN4924 (NEDD8 activating enzyme inhibitor), and CUDC-101 (histone deacetylase and receptor tyrosine kinase inhibitor) (Fig. 2, Additional file 5: Table S1). Abcg2d conferred the least resistance to THZ 531 (CDK12/13 inhibitor), CUDC-101, and gedatolisib (an inhibitor of phosphatidylinositol-3-kinase (PI3K) and mammalian target of rapamycin (mTOR)). […] Abcg2b and Abcg2c often conferred similar levels of resistance to the same substates, as evidenced by results with MLN7243, MLN4924, THZ 531, CUDC-101 and gedatolisib.

Abcg2d = system: T2, Abcg2d; test: cells; set-up: species or system HEK-293; CellTiter-Glo growth inhibition of transporter-transfected HEK-293 cells, luminescence; conditions: Homo sapiens, HEK293, 72 h; cells expressing zebrafish Abcg2d
T2 construct: HEK-293 HEK-293 stably expressing full-length FLAG-tagged zebrafish Abcg2d
Description: as §1

Abcg2b [2] = system: T3, Abcg2b; test: cells; set-up: species or system HEK-293; CellTiter-Glo growth inhibition of transporter-transfected HEK-293 cells, luminescence; conditions: Homo sapiens, HEK293, 72 h; cells expressing zebrafish Abcg2b
T3 construct: HEK-293 HEK-293 stably expressing full-length FLAG-tagged zebrafish Abcg2b
Description: as §1

Empty vector = system: T4, Empty vector; test: cells; set-up: species or system HEK-293; CellTiter-Glo growth inhibition of transporter-transfected HEK-293 cells, luminescence; conditions: Homo sapiens, HEK293, 72 h
T4 construct: HEK-293 HEK-293 stably transfected with empty pcDNA3.1
Description: as §1

Abcg2a [3] = system: T5, Abcg2a; test: cells; set-up: species or system HEK-293; CellTiter-Glo growth inhibition of transporter-transfected HEK-293 cells, luminescence; conditions: Homo sapiens, HEK293, 72 h; cells expressing zebrafish Abcg2a
T5 construct: HEK-293 HEK-293 stably expressing full-length FLAG-tagged zebrafish Abcg2a
Description: as §1

ABCG2 [4] = system: T6, ABCG2; test: cells; set-up: species or system HEK-293; CellTiter-Glo growth inhibition of transporter-transfected HEK-293 cells, luminescence; conditions: HEK293, 72 h; cells expressing human ABCG2
T6 construct: HEK-293 R-5 HEK-293 stably expressing full-length human ABCG2 (R-5)
Description: as §1

Abcg2a [5] = biological target: T7, Abcg2a (Danio rerio, UniProt Q2Q447); test: flow cytometry efflux assay; assay type: cell-based; conditions: 5 µM substrate, 37 °C, with and without inhibitor
T7 construct: homodimer
T7 sequence (Q2Q447 1-643): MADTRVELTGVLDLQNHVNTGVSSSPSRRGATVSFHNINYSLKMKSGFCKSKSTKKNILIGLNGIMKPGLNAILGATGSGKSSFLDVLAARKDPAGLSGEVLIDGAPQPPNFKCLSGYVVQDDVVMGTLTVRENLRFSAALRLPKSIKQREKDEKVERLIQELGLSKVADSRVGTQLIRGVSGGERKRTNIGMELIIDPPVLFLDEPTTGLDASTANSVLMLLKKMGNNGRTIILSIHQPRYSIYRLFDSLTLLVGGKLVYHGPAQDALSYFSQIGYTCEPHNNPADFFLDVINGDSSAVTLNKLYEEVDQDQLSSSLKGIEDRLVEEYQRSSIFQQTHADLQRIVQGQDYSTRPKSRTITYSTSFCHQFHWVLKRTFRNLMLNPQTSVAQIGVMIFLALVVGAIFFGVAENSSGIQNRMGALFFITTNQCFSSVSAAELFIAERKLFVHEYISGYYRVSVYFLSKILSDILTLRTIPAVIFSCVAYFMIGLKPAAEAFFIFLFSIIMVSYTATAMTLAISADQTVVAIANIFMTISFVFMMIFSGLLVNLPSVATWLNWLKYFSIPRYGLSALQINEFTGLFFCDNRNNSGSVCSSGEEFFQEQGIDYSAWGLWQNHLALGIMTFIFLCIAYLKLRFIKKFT

Abcg2c [6] = biological target: T8, Abcg2c (Danio rerio, UniProt A0A8M2B3F2); test: flow cytometry efflux assay; assay type: cell-based; conditions: 5 µM substrate, 37 °C, with and without inhibitor
T8 construct: homodimer
T8 sequence (A0A8M2B3F2 1-640): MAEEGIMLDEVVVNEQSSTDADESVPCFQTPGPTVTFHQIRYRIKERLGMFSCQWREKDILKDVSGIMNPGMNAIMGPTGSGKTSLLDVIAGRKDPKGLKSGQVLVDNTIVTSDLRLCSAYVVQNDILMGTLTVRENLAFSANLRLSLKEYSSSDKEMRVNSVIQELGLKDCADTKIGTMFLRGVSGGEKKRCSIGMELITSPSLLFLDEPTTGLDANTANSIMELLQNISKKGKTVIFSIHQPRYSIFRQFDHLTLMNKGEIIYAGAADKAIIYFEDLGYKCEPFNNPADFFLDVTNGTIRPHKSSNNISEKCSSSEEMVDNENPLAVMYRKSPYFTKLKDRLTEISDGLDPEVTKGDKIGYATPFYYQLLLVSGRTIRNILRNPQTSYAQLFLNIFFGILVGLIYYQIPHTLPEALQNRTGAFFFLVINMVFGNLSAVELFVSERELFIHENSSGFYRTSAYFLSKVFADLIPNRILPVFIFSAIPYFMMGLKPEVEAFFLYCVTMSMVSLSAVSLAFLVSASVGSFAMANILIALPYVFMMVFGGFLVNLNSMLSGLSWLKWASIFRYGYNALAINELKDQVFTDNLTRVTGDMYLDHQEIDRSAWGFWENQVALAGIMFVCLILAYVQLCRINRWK

Abcg2b [7] = biological target: T9, Abcg2b (Danio rerio, UniProt Q2Q446); test: flow cytometry efflux assay; assay type: cell-based; conditions: 5 µM substrate, 37 °C, with and without inhibitor
T9 construct: homodimer
T9 sequence (Q2Q446 1-618): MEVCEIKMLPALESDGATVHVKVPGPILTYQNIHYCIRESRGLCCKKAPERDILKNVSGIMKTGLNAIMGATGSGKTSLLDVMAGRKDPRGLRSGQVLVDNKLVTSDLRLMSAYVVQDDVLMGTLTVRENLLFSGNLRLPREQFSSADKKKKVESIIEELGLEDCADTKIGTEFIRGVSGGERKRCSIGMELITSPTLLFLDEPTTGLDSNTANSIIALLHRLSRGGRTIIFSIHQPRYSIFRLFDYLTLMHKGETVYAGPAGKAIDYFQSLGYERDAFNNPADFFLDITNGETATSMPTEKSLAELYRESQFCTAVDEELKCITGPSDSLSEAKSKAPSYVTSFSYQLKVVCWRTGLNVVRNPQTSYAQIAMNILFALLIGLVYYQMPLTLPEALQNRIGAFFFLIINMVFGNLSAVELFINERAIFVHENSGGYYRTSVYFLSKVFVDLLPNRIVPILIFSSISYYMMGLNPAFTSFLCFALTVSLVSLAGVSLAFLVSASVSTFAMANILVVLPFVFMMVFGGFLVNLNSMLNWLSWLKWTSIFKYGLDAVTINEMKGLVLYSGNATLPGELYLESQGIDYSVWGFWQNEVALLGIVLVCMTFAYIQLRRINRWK

ABCG2 [8] = biological target: T10, ABCG2 (Homo sapiens, UniProt Q9UNQ0); test: flow cytometry efflux assay; assay type: cell-based; conditions: 5 µM substrate, 37 °C, with and without inhibitor
T10 construct: homodimer
T10 sequence (Q9UNQ0 1-655): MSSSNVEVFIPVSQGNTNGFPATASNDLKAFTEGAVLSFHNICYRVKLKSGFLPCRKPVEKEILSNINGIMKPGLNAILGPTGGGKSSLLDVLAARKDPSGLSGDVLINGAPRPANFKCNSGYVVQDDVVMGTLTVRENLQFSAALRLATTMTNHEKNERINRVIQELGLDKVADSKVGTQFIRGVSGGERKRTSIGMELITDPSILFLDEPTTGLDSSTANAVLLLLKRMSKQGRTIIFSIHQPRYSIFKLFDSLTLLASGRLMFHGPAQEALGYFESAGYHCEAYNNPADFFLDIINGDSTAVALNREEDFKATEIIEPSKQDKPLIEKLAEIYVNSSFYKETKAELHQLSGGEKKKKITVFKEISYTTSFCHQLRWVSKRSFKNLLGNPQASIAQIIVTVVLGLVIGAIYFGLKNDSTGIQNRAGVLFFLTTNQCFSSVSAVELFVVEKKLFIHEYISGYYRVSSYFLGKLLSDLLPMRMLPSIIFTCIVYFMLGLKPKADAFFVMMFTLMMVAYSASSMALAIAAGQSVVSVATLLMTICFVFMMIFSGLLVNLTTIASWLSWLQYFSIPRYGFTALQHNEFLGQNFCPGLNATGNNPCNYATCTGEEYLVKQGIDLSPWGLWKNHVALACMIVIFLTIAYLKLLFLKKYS

| Structure (SMILES) | GI50 (Abcg2c [1]) | GI50 (Abcg2d) | GI50 (Abcg2b [2]) | GI50 (Empty vector) | GI50 (Abcg2a [3]) | GI50 (ABCG2 [4]) | flow cytometry efflux assay (Abcg2a [5]) | flow cytometry efflux assay (Abcg2c [6]) | flow cytometry efflux assay (Abcg2b [7]) | flow cytometry efflux assay (ABCG2 [8]) |
| --- | --- | --- | --- | --- | --- | --- | --- | --- | --- | --- |
| C#Cc1cccc(Nc2ncnc3cc(OC)c(OCCCCCCC(=O)NO)cc23)c1 [CUDC-101] | 1690 ± 290 nM | 1040 ± 260 nM | 2090 ± 190 nM | 780 ± 100 nM | 5420 ± 1400 nM | 11300 ± 2000 nM |  |  |  |  |
| CN(C)C1CCN(C(=O)c2ccc(NC(=O)Nc3ccc(-c4nc(N5CCOCC5)nc(N5CCOCC5)n4)cc3)cc2)CC1 [Gedatolicib, gedatolisib] | 3260 ± 490 nM | 820 ± 500 nM | 4060 ± 1500 nM | 200 ± 10 nM | 1390 ± 190 nM | 3840 ± 1500 nM |  |  |  |  |
| NS(=O)(=O)OC[C@@H]1C[C@@H](n2ccc3c(N[C@H]4CCc5ccccc54)ncnc32)C[C@@H]1O [MLN 4924] | 487 ± 40 nM | 353 ± 190 nM | 520 ± 52 nM | 420 ± 90 nM | 2440 ± 170 nM | 7320 ± 1700 nM |  |  |  |  |
| NS(=O)(=O)OC[C@H]1C[C@@H](Nc2ccnc3cc(-c4cccc(SC(F)(F)F)c4)nn23)[C@H](O)[C@@H]1O [MLN 7243] | 200 ± 20 nM | 179 ± 23 nM | 151 ± 51 nM | 69 ± 5 nM |  | 15400 ± 220 nM |  |  |  |  |
| Cc1nc(Nc2[nH]nc3c2CN(C(=O)N[C@H](CN(C)C)c2ccccc2)C3(C)C)c2sccc2n1 [PF-3758309] | 1970 ± 710 nM | 1540 ± 650 nM | 413 ± 150 nM | 68 ± 30 nM | 1260 ± 530 nM | 2360 ± 540 nM |  |  |  |  |
| CN(C)C/C=C/C(=O)Nc1ccc(C(=O)N2CCC[C@@H](Nc3ncc(Cl)c(-c4c[nH]c5ccccc45)n3)C2)cc1 [THZ 531] | 11400 ± 1000 nM | 3990 ± 240 nM | 10500 nM | 1290 ± 140 nM | 18300 ± 3600 nM | 65900 ± 3700 nM |  |  |  |  |
| O=C1c2c(O)ccc(O)c2C(=O)c2c(NCCNCCO)ccc(NCCNCCO)c21 [mitoxantrone] |  |  |  |  |  |  | rightward inhibited peak shift for Abcg2a with mitoxantrone |  |  |  |
| C=Cc1c(C)c2cc3nc(c4c5[nH]c(cc6nc(cc1[nH]2)C(C)=C6CC)c(C)c5C(=O)[C@@H]4C(=O)OC)[C@@H](CCC(=O)O)[C@@H]3C [pheophorbide a] |  |  |  |  |  |  | to a greater extent with pheophorbide a, indicating Abcg2a can efflux both substrates | Pheophorbide a also appears to be a substrate for Abcg2b and Abcg2c | Pheophorbide a also appears to be a substrate for Abcg2b and Abcg2c | ABCG2-expressing cells exhibit an increase in intracellular fluorescence |
